From patent US6841682B2, “Heterocycles useful in the treatment of benign prostatic hyperplasia” (Janseen Pharmaceutica N.V., priority 1997, dated 2005)

Key:
α1a-AR = molecular target: T1, α1a-AR (Homo sapiens, UniProt P35348); assay: radioligand ([125I]-HEAT) receptor binding assay, COS cell membranes, α1a-AR; conditions: Tables A-J; [125I]-HEAT 50 pM, COS membranes; read-out: α1a IC50
T1 construct: expressed in transfected cells; host or cells: COS cells (pcDNA3 vector, DEAE-dextran transient transfection); membrane preparation
T1 sequence (P35348 1-466): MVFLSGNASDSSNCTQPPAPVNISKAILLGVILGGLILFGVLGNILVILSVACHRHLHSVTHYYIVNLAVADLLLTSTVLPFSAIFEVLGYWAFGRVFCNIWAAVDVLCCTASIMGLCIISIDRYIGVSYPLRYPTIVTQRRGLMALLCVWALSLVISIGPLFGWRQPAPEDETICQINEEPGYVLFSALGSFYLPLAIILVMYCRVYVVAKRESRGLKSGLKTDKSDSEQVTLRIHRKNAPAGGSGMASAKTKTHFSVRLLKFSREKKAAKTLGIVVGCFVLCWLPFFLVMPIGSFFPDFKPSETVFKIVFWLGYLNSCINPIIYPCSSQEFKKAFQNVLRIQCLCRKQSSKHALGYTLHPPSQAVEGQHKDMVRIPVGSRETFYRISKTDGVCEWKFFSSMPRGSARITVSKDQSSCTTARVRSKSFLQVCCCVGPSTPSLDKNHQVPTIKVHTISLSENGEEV
Text: The first assay tested the ability of compounds of Formula I to bind to membrane bound receptors α1a-AR, α1b-AR and α1d-AR.
The DNA sequences of the three cloned human α1-AR subtypes have been published. […] We used published DNA sequence information to design-primers for use in RT-PCR amplification of each subtype to obtain cloned cDNAs. Human poly A+ RNA was obtained from commercially available sources and included hippocampus and prostate samples, sources which have been cited in the literature. For the primary screen a radio ligand binding assay was used which employed membrane preparations from cells expressing the individual cloned receptor cDNAs.
Each α1 receptor subtype was cloned from poly A+ RNA by the standard method of reverse transcription-polymerase chain reaction (RT-PCR). The following sources of polyA+ RNA were used for the cloning of the al receptor subtypes: α1a-AR, human hippocampus and prostate, α1b-AR, human hippocampus, α1d-AR, human hippocampus. The resulting cDNAs were cloned into the pcDNA3 mammalian expression vector (Invitrogen Corp., San Diego Calif.). Each DNA was sequenced for verification and to detect any possible mutations introduced during the amplification process. Any deviation in sequence from the published consensus for each receptor subtype was corrected by site-directed mutagenesis.
The three α1-AR subtypes (a, b, d) were transfected into COS cells using a standard DEAE-dextran procedure with a chloroquine shock. In this procedure, each tissue culture dish (100 mm) was inoculated with 3.5×10^6 cells and transfected with 10 μg of DNA. Approximately 72 hours post-transfection, the cells were harvested and COS membranes were prepared. Transfected COS cells from 25 plates (100 mm) were scraped and suspended in 15 mL of TE buffer (50 mM Tris-HCl, 5 mM EDTA, pH7.4). The suspension was disrupted with a homogenizer. It was then centrifuged at 1000×g for 10 minutes at 4° C. The supernatant was centrifuged at 34,500×g for 20 minutes at 4° C. The pellet was resuspended in 5 mL TNE buffer (50 mM Tris-HCl, 5 mM EDTA, 150 mM NaCl, pH7.4). The resulting membrane preparation was aliquoted and stored at −70° C. The protein concentration was determined following membrane solubilization with TritonX-100.
The ability of each compound to bind to each of the α1-AR subtypes was assessed in a receptor binding assay. […] The plate was incubated for 1 hour at room temperature and the reaction mixtures were filtered through a Packard GF/C Unifilter filter plate. The filter plate was dried for 1 hour in a vacuum oven. Scintillation fluid ([…]) was added to each well, and the filter plate was counted in a Packard Topcount scintillation counter. Data was analyzed using GraphPad Prism software.

rat aorta tissues = assay: norepinephrine-induced contractile response of rat aorta tissue; type: tissue-based; conditions: rat aortic rings, 37° C., pH 7.4, read-out: IC50, inhibition of contractile response in aortic tissue
Text: The contractile responses of rat prostatic tissue and rat aorta tissues were examined in the presence and absence of antagonist compounds. As an indication of the selectivity of antagonism, test compound effects on vascular smooth muscle contractility (α1b-AR and α1d-AR) were compared to the effects on prostatic smooth muscle (α1a-AR). Strips of prostatic tissue and aortic rings were obtained from Long Evans derived male rats weighing 275 grams and sacrificed by cervical dislocation. The prostate tissue was placed under 1 gram tension in a 10 ml bath containing phosphate buffered saline pH 7.4 at 32° C. and isometric tension was measured with force transducers. The aortic tissue was placed under 2 grams tension in a 10 ml bath containing phosphate buffered saline pH 7.4 at 37° C. The ability of test compound to reduce the norepinephrine-induced contractile response by 50% (IC50) was determined.

Row | SMILES | IC50 (α1a-AR) | IC50 (rat aorta tissues)
1 | CC(C)Oc1ccccc1N1CCN(Cc2ncc(CN3CCCCC3=O)s2)CC1 [Compound 16] | 0.00188 µM | 13.5 µM
2 | CC(C)Oc1ccccc1N1CCN(Cc2cc(CN3CCCCC3=O)n[nH]2)CC1 [Compound 3] | 0.0021 µM | 31.9 µM
